Columns and labels:
Assay in all cases: relative viability (nuclei count vs DMSO), 5 days (fraction); higher = more cells survive
[1] = compound: Nc1nc(Nc2ccc3c(c2)CC[C@@H](N2CCCC2)CC3)nn1-c1cc2c(nn1)-c1ccccc1CCC2 [Bemcentinib] + CCNC(=O)c1noc(-c2cc(C(C)C)c(O)cc2O)c1-c1ccc(CN2CCOCC2)cc1 [Luminespib] (partner 0.01 µM)
Method in brief: (§1)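 Values are medians from duplicate plates. Each reflects relative viability, defined as the nuclei count of treated wells over that of vehicle wells. Lung cancer cell lines in 1536-well plates were pin-tool dosed one day after seeding with one drug alone or with a fixed anchor-drug dose plus five library-drug doses (not always all listed) in √10 steps, then fixed, stained and imaged at 4× after 5 days.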

[2] = compound: CNC(=O)c1ccccc1Sc1ccc2c(/C=C/c3ccccn3)n[nH]c2c1 [Axitinib] + C[C@@H](Oc1cc(-c2cnn(C3CCNCC3)c2)cnc1N)c1c(Cl)ccc(F)c1Cl [Crizotinib] (partner 1 µM)
Method in brief: as §1

[3] = compound: Nc1nc(Nc2ccc3c(c2)CC[C@@H](N2CCCC2)CC3)nn1-c1cc2c(nn1)-c1ccccc1CCC2 [Bemcentinib] + Nc1nc2[nH]cc(CCc3ccc(C(=O)N[C@@H](CCC(=O)O)C(=O)O)cc3)c2c(=O)[nH]1 [Pemetrexed] (partner 0.2 µM)
Method in brief: as §1

[4] = compound: Nc1nc(Nc2ccc3c(c2)CC[C@@H](N2CCCC2)CC3)nn1-c1cc2c(nn1)-c1ccccc1CCC2 [Bemcentinib] + C[C@@H](Oc1cc(-c2cnn(C3CCNCC3)c2)cnc1N)c1c(Cl)ccc(F)c1Cl [Crizotinib] (partner 1 µM)
Method in brief: as §1

Cell Line | relative viability ([1]; first compound 0.04 µM) | relative viability ([1]; first compound 0.1265 µM) | relative viability ([1]; first compound 0.4 µM) | relative viability ([1]; first compound 1.265 µM) | relative viability ([1]; first compound 4 µM) | relative viability ([2]; first compound 0.005 µM) | relative viability ([2]; first compound 0.01581 µM) | relative viability ([2]; first compound 0.05 µM) | relative viability ([2]; first compound 0.1581 µM) | relative viability ([2]; first compound 0.5 µM) | relative viability ([3]; first compound 0.04 µM) | relative viability ([3]; first compound 0.1265 µM) | relative viability ([3]; first compound 0.4 µM) | relative viability ([3]; first compound 1.265 µM) | relative viability ([3]; first compound 4 µM) | relative viability ([4]; first compound 0.04 µM) | relative viability ([4]; first compound 0.1265 µM) | relative viability ([4]; first compound 0.4 µM) | relative viability ([4]; first compound 1.265 µM) | relative viability ([4]; first compound 4 µM)
NCI-H838 | 0.256 | 0.278 | 0.357 | 0.282 | 0.262 | 0.852 | 0.945 | 0.874 | 0.886 | 0.953 | 0.229 | 0.267 | 0.272 | 0.257 | 0.262 | 0.805 | 0.958 | 0.906 | 0.893 | 0.869
NCI-H1355 | 0.771 | 0.823 | 0.737 | 0.673 | 0.758 | 1.13 | 1.06 | 1.1 | 0.948 | 1.29 | 1.06 | 1.16 | 1.13 | 1.03 | 1.04 | 1.08 | 1.18 | 1.07 | 1.14 | 1.17
NCI-H1437 | 1.12 | 1.24 | 1.15 | 1.07 | 1.11 | 1.07 | 0.927 | 0.863 | 0.934 | 0.93 | 0.305 | 0.323 | 0.322 | 0.362 | 0.331 | 0.931 | 1.04 | 0.972 | 0.984 | 0.967
NCI-H1563 | 0.507 | 0.538 | 0.475 | 0.55 | 0.535 | 0.957 | 0.791 | 0.877 | 0.833 | 0.907 | 0.768 | 0.716 | 0.844 | 0.663 | 0.772 | 0.79 | 0.759 | 0.81 | 0.849 | 0.89
NCI-H1650 | 0.207 | 0.237 | 0.199 | 0.236 | 0.186 | 0.979 | 0.949 | 1.04 | 0.947 | 1.13 | 0.327 | 0.337 | 0.414 | 0.391 | 0.364 | 0.887 | 0.998 | 1.05 | 0.973 | 0.814
NCI-H1651 | 0.967 | 0.757 | 1.05 | 0.79 | 0.977 | 0.904 | 0.858 | 0.707 | 0.842 | 0.861 | 0.548 | 0.592 | 0.646 | 0.475 | 0.614 | 0.886 | 0.882 | 0.873 | 0.905 | 0.878
NCI-H1666 | 1.05 | 1.07 | 0.993 | 0.956 | 0.955 | 1.29 | 0.97 | 1.12 | 0.931 | 1.14 | 0.884 | 0.845 | 0.813 | 0.885 | 0.827 | 1.01 | 0.889 | 0.963 | 0.861 | 0.89
NCI-H1734 | 0.178 | 0.192 | 0.219 | 0.218 | 0.188 | 0.683 | 0.765 | 0.679 | 0.758 | 0.868 | 0.419 | 0.459 | 0.398 | 0.402 | 0.448 | 0.686 | 0.691 | 0.669 | 0.667 | 0.698
NCI-H1755 | 0.742 | 0.52 | 0.617 | 0.34 | 0.418 | 0.955 | 0.891 | 0.872 | 0.863 | 0.921 | 0.418 | 0.498 | 0.565 | 0.569 | 0.455 | 0.901 | 0.878 | 0.838 | 0.939 | 0.901
NCI-H1792 | 0.578 | 0.482 | 0.64 | 0.489 | 0.486 | 1.02 | 0.988 | 0.987 | 0.962 | 0.955 | 0.918 | 0.988 | 1.06 | 0.68 | 0.85 | 1.02 | 1.2 | 1.26 | 0.965 | 0.957
NCI-H1915 | 0.861 | 0.974 | 0.9 | 0.899 | 0.89 | 0.905 | 0.899 | 0.908 | 0.883 | 0.957 | 0.48 | 0.533 | 0.538 | 0.489 | 0.443 | 0.957 | 1.03 | 0.911 | 0.96 | 0.989
NCI-H1944 | 0.735 | 0.836 | 0.791 | 0.705 | 0.758 | 1.05 | 1.24 | 1.03 | 1.15 | 1.18 | 0.633 | 0.66 | 0.649 | 0.589 | 0.634 | 1.13 | 1.11 | 1.17 | 1.18 | 1.1
NCI-H1975 | 0.162 | 0.216 | 0.249 | 0.187 | 0.204 | 1.13 | 1.05 | 1.15 | 0.931 | 1.08 | 0.307 | 0.362 | 0.301 | 0.283 | 0.299 | 1.07 | 1.23 | 1.07 | 1.1 | 1.17
NCI-H1993 | 0.905 | 0.768 | 0.999 | 1.13 | 0.899 | 1.01 | 0.983 | 0.873 | 0.96 | 0.858 | 0.566 | 0.59 | 0.623 | 0.584 | 0.62 | 0.913 | 0.966 | 0.876 | 1.03 | 1.1
NCI-H2009 | 1.07 | 1.04 | 1.13 | 0.997 | 1.03 | 1.17 | 1.14 | 1.01 | 1.08 | 1.16 | 1.03 | 1.07 | 1.12 | 1.07 | 1.01 | 1.01 | 1.08 | 1.11 | 0.951 | 1.05
NCI-H2023 | 0.839 | 0.695 | 1.02 | 0.864 | 0.657 | 0.699 | 0.786 | 0.651 | 0.73 | 0.684 | 0.225 | 0.287 | 0.217 | 0.213 | 0.198 | 0.648 | 0.653 | 0.723 | 0.6 | 0.599
NCI-H2085 | 0.447 | 0.448 | 0.435 | 0.471 | 0.449 | 0.799 | 0.902 | 0.794 | 0.718 | 0.874 | 0.857 | 0.945 | 0.861 | 0.876 | 0.714 | 0.836 | 0.802 | 0.753 | 0.803 | 0.919
NCI-H2087 | 0.142 | 0.15 | 0.187 | 0.219 | 0.185 | 0.986 | 0.912 | 0.914 | 0.767 | 0.825 | 0.772 | 0.798 | 0.64 | 0.611 | 0.685 | 0.827 | 0.982 | 0.942 | 0.999 | 1.05
NCI-H2126 | 0.893 | 0.973 | 0.81 | 0.975 | 0.939 | 1.08 | 0.998 | 0.928 | 0.97 | 1.02 | 0.732 | 0.671 | 0.713 | 0.646 | 0.831 | 1.05 | 1.1 | 1.01 | 1.03 | 1.02
NCI-H2170 | 0.568 | 0.923 | 0.649 | 0.809 | 0.869 | 1.2 | 1.18 | 1.27 | 1.1 | 1.35 | 0.264 | 0.278 | 0.283 | 0.244 | 0.264 | 1.36 | 1.36 | 1.21 | 1.38 | 1.31
NCI-H2228 | 0.128 | 0.152 | 0.159 | 0.111 | 0.134 | 0.443 | 0.473 | 0.384 | 0.612 | 0.438 | 0.325 | 0.346 | 0.351 | 0.34 | 0.321 | – | 0.551 | 0.599 | 0.467 | 0.451
NCI-H2347 | 0.631 | 0.438 | 0.866 | 0.5 | 0.417 | 0.644 | 1.04 | 0.739 | 0.743 | 0.85 | 0.558 | 0.457 | 0.428 | 0.434 | 0.437 | 0.783 | 1.01 | 0.612 | 0.669 | 0.627
NCI-H2405 | 0.659 | 0.716 | 0.609 | 0.754 | 0.656 | 0.822 | 0.972 | 0.831 | 0.754 | 0.852 | 1.01 | 1.12 | 1.14 | 1.11 | 1.19 | 0.826 | 0.922 | 0.87 | 0.853 | 0.914
NCI-H3122 | – | 0.0968 | 0.102 | 0.0892 | 0.0707 | 0.205 | 0.276 | 0.274 | 0.314 | 0.267 | – | 0.222 | 0.213 | 0.194 | 0.2 | 0.257 | 0.157 | 0.262 | 0.31 | 0.293
PC-3 [JPC-3] | 0.722 | 0.695 | 0.712 | 0.69 | 0.674 | 1.04 | – | 0.943 | 0.95 | 1.11 | 1.12 | 1.32 | 1.28 | 1.07 | 1.07 | 0.959 | 1.03 | 1 | 0.974 | 1.09
PC-14 | 0.132 | 0.137 | 0.186 | 0.159 | 0.132 | 0.954 | 0.959 | 0.849 | 0.937 | 0.984 | 0.131 | 0.13 | 0.139 | 0.141 | 0.124 | 0.838 | 0.937 | 0.879 | 0.896 | 1.01

Reference: the supplement of paper PMC10307832
